From patent publication US12331053B2, “Method for obtaining amorphous remimazolam besylate” (MOEHS IBERICA, S.L., priority 2019, dated 2025)
Where two headings read alike, the source gives them in different places.

Assays:
[1] = lyophilized alone, without excipients; cited from earlier work
[2] = Stability study: storage in climatic chambers, solid form checked by XRPD and DSC; format: physicochemical; conditions: for solid form stability after storage (XRPD) / solid form stability after storage (XRPD, DSC): 40° C. and 80% relative humidity; for solid form stability after storage (XRPD): 6 months
Experimental: The XRPD analysis was performed using a Siemens model D-5000 X-ray powder diffractometer equipped with a copper anode. The radiation used is CuKα with a wavelength of 1.541838 Å. Scanning parameters: 4-50 degrees 2θ, continuous scan, ratio: 1.2 degrees/minute.
The differential scanning calorimetry (DSC) analysis was performed in a Mettler Toledo 822e apparatus with STARe SW15.00 software. Parameters: range of heating from 25 to 300° C. with a ramp of 20° C./min and a N2 flow of 50 mL/min. The measurement was taken with a closed perforated capsule.
This is proven in the stability results of the product in amorphous form obtained according to assays 1.5 (lyophilization in acetonitrile) and 1.6 (lyophilization in water) indicated in Table 1. To determine said stability, the product was stored in climatic chambers under two different conditions: a) temperature of 40° C. and 80% relative humidity and b) temperature of 25° C. and 60% relative humidity.

[3] = free base, cited from earlier work

COC(=O)CC[C@@H]1N=C(c2ccccn2)c2cc(Br)ccc2-n2c(C)cnc21.O=S(=O)(O)c1ccccc1 [remimazolam besylate]
stability after lyophilization [1]: did not result in satisfactory stability

COC(=O)CC[C@@H]1N=C(c2ccccn2)c2cc(Br)ccc2-n2c(C)cnc21.O=S(=O)(O)c1ccccc1 [Comparative Example 3, remimazolam besylate]
solid form after storage (XRPD) ([2]; 4° C., one month): crystalline form 2 | solid form after storage (XRPD, DSC) ([2]; 40° C. and 80% RH, one week): crystalline form 2

COC(=O)CC[C@@H]1N=C(c2ccccn2)c2cc(Br)ccc2-n2c(C)cnc21 [remimazolam, methyl 3-{(4S)-8-bromo-1-methyl-6-(pyridin-2-yl)-4H-imidazo[1,2-a][1,4]benzodiazepin-4-yl}propanoate]
storage stability ([3]; 40° C. and 75% relative humidity, open vial): behaves like a deliquescent solid | storage stability ([3]; 60° C. and ambient humidity, closed vial): behaves like a deliquescent solid | storage stability ([3]; stored at 5° C.): stable

COC(=O)CC[C@@H]1N=C(c2ccccn2)c2cc(Br)ccc2-n2c(C)cnc21.O=S(=O)(O)c1ccccc1 [Assay 1.5, remimazolam besylate]
solid form stability after storage (XRPD) [2]: still maintains the initial characteristics in terms of the amorphous form | solid form stability after storage (XRPD, DSC) ([2]; 15 days): still maintains the initial characteristics in terms of the amorphous form | solid form stability after storage (XRPD, DSC) ([2]; 30 days): still maintains the initial characteristics in terms of the amorphous form

COC(=O)CC[C@@H]1N=C(c2ccccn2)c2cc(Br)ccc2-n2c(C)cnc21.O=S(=O)(O)c1ccccc1 [Assay 1.6, remimazolam besylate]
solid form stability after storage (XRPD) [2]: still maintains the initial characteristics in terms of the amorphous form | solid form stability after storage (XRPD, DSC) ([2]; 15 days): still maintains the initial characteristics in terms of the amorphous form
